Read-outs that look alike come from different tables or passages of the source.
Columns and labels:
A549 or A549/DDP cells = test: CIS IC50 with constant DZ-SIM ester or amide, Crystal Violet assay; assay type: cell-based, human; conditions: 72 h; for Sensitization of cancer cells to CIS: combination with CIS
Description: Cell proliferation is determined by a Crystal Violet assay. The data represent the mean+/−SEM for two assays done in quadruplicate.

CTC 752-S-1 = test: Circulating tumor cell growth IC50 / sensitization; assay type: cell-based, human
Excerpt: (§1) Exemplary Embodiments are generally performed as follows, unless otherwise noted. Simvastatin is purchased from Ark Pharm, Inc. (Arlington Heights, IL). Cisplatin (CIS) is purchased from MedKoo Biosciences, Inc. (Chapel Hill, NC). Dihydroartemisinin is purchased from TCI America (Portland, OR). All other chemicals and reagents are purchased from standard sources such as Sigma-Aldrich and/or VWR and are of highest quality available. Puromycin dihydrochloride was purchased from Alfa Aesar (Tewksbury, MA). Deionized water ([…]) used for making solutions is obtained from Milli-Q Direct Ultrapure Water System from Millipore (Billerica, MA, USA). All intermediates are characterized by 1H NMR and mass analysis and the purity of compounds are analyzed by HPLC. 1H NMR data are collected on Bruker 400 MHz spectrometers using standard parameters; chemical shifts are reported in ppm (δ) in reference to residual non-deuterated solvent. ESI mass spectroscopy analysis is performed using a Thermo Fisher LTQ Orbitrap Elite system. IC50 is the half maximal inhibitory concentration and determined is determined by crystal violet assay unless otherwise noted.
(§2) Standard cell culture conditions typically are RPMI 1640 medium, 10% fetal bovine serum, 1% PenStrep, and are performed in a humidified atmosphere containing 5% CO2 at 37° C. Generally, 5,000 cells/well-10,000 cells/well are seeded in 96 well plates in 100 microliter medium/per well for 24 h, or as described in Example 16, unless otherwise noted. Certain cells require specialized media, growth factors, antibiotics, or culture condition adjustments, as will be apparent to a person of ordinary skill in the art.
Pancreatic cancer cells are cultured for 72 hours in vitro and exposed to the conventional chemotherapeutic drugs Gemcitabine (GEM) and Paclitaxel (PAC), known to inhibit pancreatic cancer growth in patients. GEM (or PAC) alone are compared to a combination with SIM, or a combination with DZ-SIM. […] Representative results are illustrated in the graphs in FIG. 3.
Cells are cultured according to their standard culturing conditions, and IC50s are determined as described herein-above.
Representative results of the determined IC50s are shown in the table below for the indicated cancer cells cultured in vitro, including CTCs (C752-S-1), B-Cell Lymphoma (Namalwa), prostate cancer cells (C4-2B), and renal cancer cells (Caki-1). The cells are cultured according to their standard culturing conditions, and IC50s are determined as described herein-above.

NKPC-961 = test: Sensitization of pancreatic cancer cells to CIS and GEM; assay type: cell-based, mouse
Excerpt: GEM (or PAC) alone are compared to a combination with SIM, or a combination with DZ-SIM.

22Rv1 = test: Cancer cell growth IC50 (crystal violet); assay type: cell-based, human; conditions: Example 13, 72 h
Excerpt: as §1
(§3) The crystal violet assay is performed as follows, unless otherwise noted. Cell lines are supplemented with RPMI 1640 medium, 10% fetal bovine serum, 1% PenStrep, and placed in a humidified atmosphere containing 5% CO2 at 37° C. 5,000 cells/well renal cancer cells and 10,000 cells/well lymphoma cells are seeded in 96 well plates in 100 microliter medium/per well for 24 h. […] Renal cancer cells are fixed with 3.7% paraformaldehyde for 15 minutes and are stained with Crystal violet solution (0.5% in 25% methanol) for 30 minutes. After rinsing with water cell layers are dried and decolorized with Sorenson citrate with shaking for 20 minutes. Light absorption of the extracted supernatant is read at 595 nm. Lymphoma cell growth was evaluated using MTT and cells are incubated for 4 hours. 100 microliters of isopropanol is added, and the extracted supernatant fraction is read at absorption maximum of 595 nm. […]

[1] = test system: Ramos, a B-cell lymphoma, cultured as 3-D spheroids; test: Cell viability IC50 in 3-D spheroids; assay type: cell-based, human
Excerpt: as §1
Cancer cells were Ramos, a B-cell lymphoma, cultured as 3-D spheroids, cultured according to their standard culturing conditions.

22Rv1 tumors = test: Prostate tumor xenograft growth; assay type: in vivo, mice; conditions: IP twice per week, 37 days; SIM 1.1 mg/kg, DZ-SIM 5.5 mg/kg, DT 8 mg/kg
Description: A human prostate tumor xenograft model, 22Rv1 in immune compromised mice, is employed as follows. 1×10^6 freshly harvested cells of a cultured human prostate carcinoma cell line, 22Rv1, are inoculated s.q. in mice. Mice bearing 22Rv1 tumors (10 tumors/group) are randomized into 7 groups on day-1, and administered drugs by IP (intraperitoneally) at the next day (day-2), and subsequently twice per week, using the following drugs and dosages: a control/vehicle (V, i.e. no drug), DZ (5 μM or 3.9 mg/kg, calculated based on the body weight of mice which averaged 20 grams), SIM (5 μM or 1.1 mg/kg), DZ-SIM (5 μM or 5.5 mg/kg), docetaxel (DT, 8 mg/kg), SIM+DT (drug doses as indicated), and DZ-SIM+DT (drug doses as indicated). Administration is continued for a total of 37 days, and tumor volumes are measured at the indicated times (see FIG. 4). […] Thus therapeutically resistant prostate tumors can be rendered sensitive by DZ-SIM but not SIM.

MCF-7 = test: Cancer cell growth IC50 (crystal violet); assay type: cell-based; conditions: Example 13, 72 h
Excerpt: as §1
(§4) The crystal violet assay is performed as follows, unless otherwise noted. Cell lines are supplemented with RPMI 1640 medium, 10% fetal bovine serum, 1% PenStrep, and placed in a humidified atmosphere containing 5% CO2 at 37° C. 5,000 cells/well renal cancer cells and 10,000 cells/well lymphoma cells are seeded in 96 well plates in 100 microliter medium/per well for 24 h. […] Renal cancer cells are fixed with 3.7% paraformaldehyde for 15 minutes and are stained with Crystal violet solution (0.5% in 25% methanol) for 30 minutes. After rinsing with water cell layers are dried and decolorized with Sorenson citrate with shaking for 20 minutes. Light absorption of the extracted supernatant is read at 595 nm. Lymphoma cell growth was evaluated using MTT and cells are incubated for 4 hours. 100 microliters of isopropanol is added, and the extracted supernatant fraction is read at absorption maximum of 595 nm.
as §2

C4-2 = test: Cancer cell growth IC50 (crystal violet); assay type: cell-based; conditions: Example 13; C42; 72 h
Excerpt: as §1, §4, §2

C4-2B = test: Cancer cell growth IC50 (crystal violet); assay type: cell-based
Excerpt: as §1, §4, §2

PC3 = test: Cancer cell growth IC50 (crystal violet); assay type: cell-based; conditions: Example 13, 72 h
Excerpt: as §1, §4, §2

PC3M = test: Cancer cell growth IC50 (crystal violet); assay type: cell-based; conditions: Example 13, 72 h
Excerpt: as §1, §4, §2

U87 = test: Cancer cell growth IC50 (crystal violet); assay type: cell-based; conditions: Example 13, 72 h
Excerpt: as §1, §4, §2

LNCaP = test: Cancer cell growth IC50 (crystal violet); assay type: cell-based; conditions: Example 13, 72 h
Excerpt: as §1, §4, §2

ARCaP-E = test: Cancer cell growth IC50 (crystal violet); assay type: cell-based; conditions: Example 13, 72 h
Excerpt: as §1, §4, §2

MIAPaCa II = test: Cancer cell growth IC50 / sensitization (crystal violet); assay type: cell-based; conditions: Example 13, 72 h
Excerpt: as §1, §3

Ramos = test: Lymphoma cell growth IC50 (MTT); assay type: cell-based, human; conditions: Example 13, 72 h, read-out: IC50
Excerpt: as §1, §4, §2
(§5) Cell lines are cultured as follows. […] 5,000 cells/well renal cancer cells and 10,000 cells/well lymphoma cells are seeded in 96 well plates in 100 microliter medium/per well for 24 h. […] Renal cancer cells are fixed with 3.7% paraformaldehyde for 15 minutes and are stained with Crystal violet solution (0.5% in 25% methanol) for 30 minutes. After rinsing with water cell layers are dried and decolorized with Sorenson citrate with shaking for 20 minutes. Light absorption of the extracted supernatant is read at 595 nm. Lymphoma cell growth is evaluated using MTT and cells are incubated for 4 hours. 100 microliters of isopropanol is added, and the extracted supernatant fraction is read at absorption maximum of 595 nm.

Namalwa = test: Lymphoma cell growth IC50 (MTT); assay type: cell-based, human
Excerpt: as §1, §4, §2, §5

Raji = test: Lymphoma cell growth IC50 (MTT); assay type: cell-based, human; conditions: Example 13, 72 h, read-out: IC50
Excerpt: as §1, §4, §2, §5

Daudi = test: Lymphoma cell growth IC50 (MTT); assay type: cell-based, human; conditions: Example 13, 72 h, read-out: IC50
Excerpt: as §1, §4, §2, §5

Caki-1 = test: Renal cancer cell growth IC50 (crystal violet); assay type: cell-based, human; conditions: Caki-1, read-out: IC50
Excerpt: as §1, §4, §2, §5

[2] = Homo sapiens, Example 23, CTC 752-S-1
[3] = Homo sapiens, Example 23, read-out: IC50

In the case of CCC(C)(C)C(=O)O[C@H]1C[C@@H](C)C=C2C=C[C@H](C)[C@H](CC[C@@H](O)C[C@@H](O)CC(=O)CCCCNC(=O)CCCCCN3/C(=C/C=C4\CCCC(/C=C/C5=[N+](CCCCS(=O)(=O)[O-])c6ccccc6C5(C)C)=C4Cl)C(C)(C)c4ccccc43)[C@H]21 [DZ-SIM amide], the “Sensitization of cancer cells to CIS” value (A549 or A549/DDP cells) is reported as “sensitize cancer cells to CIS”.
For CCC(C)(C)C(=O)O[C@H]1C[C@@H](C)C=C2C=C[C@H](C)[C@H](CC[C@@H]3C[C@@H](OC(=O)CCCCCN4/C(=C/C=C5\CCCC(/C=C/C6=[N+](CCCCS(=O)(=O)[O-])c7ccccc7C6(C)C)=C5Cl)C(C)(C)c5ccccc54)CC(=O)O3)[C@H]21 [DZ-SIM ester], the “Reduction of the IC50 of CIS by combination” value (A549 or A549/DDP cells) was “up to 200 fold”, the “Sensitization of cancer cells to CIS” value (A549 or A549/DDP cells) was “sensitize cancer cells to CIS” and the “Sensitization to GEM or PAC” value (CTC 752-S-1; CTC-752-S-1 human pancreatic cancer cells, 72 hours) was “more effective sensitizer to GEM or PAC than SIM”. For the same molecule, the “Sensitization to CIS and GEM” value (NKPC-961) was “about equally sensitize”, the IC50 (22Rv1) was 4900 nM and the IC50 ([1]; Homo sapiens, Ramos 3-D spheroids, 72 h, single agent) was 2740 nM. For the same molecule, the “Increase of CIS cytotoxicity” value ([1]; Ramos, 2 μM DZ-SIM ester) was “over 190 fold”, the “Potency relative to SIM” value ([1]; Ramos, 72 h) was 5 fold and the “Growth of 22Rv1 tumors in vivo (tumor volume)” value (22Rv1 tumors) was “inhibited the growth of tumors in vivo”. The IC50 (MCF-7) was 9900 nM, the IC50 (C4-2) was 4260 nM and the IC50 (C4-2B; Example 13, 72 h) was 1810 nM. It also gave an IC50 (PC3) of 7150 nM, an IC50 (PC3M) of 5190 nM and an IC50 (U87) of 1320 nM. It also gave an IC50 (LNCaP) of 1790 nM, an IC50 (ARCaP-E) of 4760 nM and an IC50 (MIAPaCa II) of 2120 nM. For the same molecule, the IC50 (Ramos) was 2740 nM, the IC50 (Namalwa; Example 13, 72 h, read-out: IC50) was 7150 nM and the IC50 (Raji) was 8800 nM. The IC50 (Daudi) was 5610 nM.
COc1cccc2c1C(=O)c1c(O)c3c(c(O)c1C2=O)C[C@@](O)(C(=O)CO)C[C@@H]3O[C@H]1C[C@H](NC(=O)CCCCCN2/C(=C/C=C3\CCCC(/C=C/C4=[N+](CCCCS(=O)(=O)[O-])c5ccccc5C4(C)C)=C3Cl)C(C)(C)c3ccccc32)[C@@H](O)[C@H](C)O1 [DZ-Doxorubicin] was tested, and the IC50 (CTC 752-S-1; [2]) was 3410 nM, the IC50 (C4-2B; Example 23) was 206 nM and the IC50 (Caki-1; Homo sapiens, Example 23) was greater than 64000 nM. For the same molecule, the IC50 (Namalwa; [3]) was 6230 nM.
COc1ccc(C[C@H](N)C(=O)N[C@H]2[C@@H](O)[C@H](n3cnc4c(N(C)C)ncnc43)O[C@@H]2CO)cc1 [Puromycin] was tested, and the IC50 (CTC 752-S-1; [2]) was 4870 nM, the IC50 (C4-2B; Example 23) was 249 nM and the IC50 (Caki-1; Homo sapiens, Example 23) was 740 nM. The IC50 (Namalwa; [3]) was 969 nM.
CC1CCC2C(C)C(OC(=O)CCCCCN3C(=CC=C4CCCC(C=CC5=[N+](CCCCS(=O)(=O)[O-])c6ccccc6C5(C)C)=C4Cl)C(C)(C)c4ccccc43)OC3OC4(C)CCC1C32OO4 (centres unmarked) [DZ-ART ester] showed an IC50 (CTC 752-S-1; Example 22, CTC 752-S-1, 3D cultured tumor spheroids) of 1640 nM, an IC50 (C4-2B; Example 22) of 291 nM and an IC50 (Caki-1; Example 22) of 703 nM. The IC50 (Namalwa; Example 22, read-out: IC50) was 1300 nM.
